In US9868695B2 (priority 2014, dated 2018):
Several values for one entry are separate records, joined by “and”; a condition that tells them apart may be missing. Equal entries are not always repeated. Where two headings read alike, the source gives them in different places.

Columns and labels:
[1] = Thermodynamic equilibrium solubility; format: physicochemical; conditions: 25 °C, thermodynamic from solid, 25±1° C.
Protocol: The compounds were first dissolved in methanol to prepare stock solutions (100 and 1000 μg/mL). Different concentrations of stock solutions were pipetted into the 96-well plates and the solvent was evaporated to ensure that solid drug was present in the beginning of the experiment. Thereafter, 200 μl of the dissolution medium was added to the wells and 96-well plate was shaken horizontally at 300 rpm (Eppendorf Thermoblock Adapter, North America) for 4 h at room temperature (25±1° C.). The plates were kept overnight for equilibration of drug in medium. Later, the plates were centrifuged at 3000 rpm for 15 min (Jouan centrifuge BR4i). Supernatant (50 μl) was pipetted into UV 96-well plates (Corning® 96 Well Clear Flat Bottom UV-Transparent Microplate) for analyses with plate reader (SpectraMax Plus384) at λmax of 350 nm. The analyses were performed in triplicate for each compound. The solubility curve of concentration (μg/mL) vs absorbance was plotted to find out saturation point and the corresponding concentration was noted.

[2] = Oral and IV pharmacokinetic studies; format: in vivo; conditions: BALB/c mice; for bioavailability: PO 10 mg/Kg vs IV 1 mg/Kg
Protocol: Oral and intravenous (IV) pharmacokinetic studies of compound 1g were carried out in BALB/c male mice (Jubilant Biosys Limited, Bangalore) of age 4-6 weeks, by administering 1g orally and IV at dose of 10 mg/kg for oral and 1 mg/kg for IV. Plasma samples were collected at appropriate time points between the range of 0 hours to 24 hours and analyzed by LC-MS-MS. Mean plasma concentration calculated and data were further analyzed for PK parameters using WinNonlin 5.3 software package.

[3] = tested on: microtubules in HCT-116 cells; test: Effect of compounds on microtubules, confocal microscopy; format: cell-based, Human; conditions: 100 nM, 24 h, anti-α-tubulin staining, compared to control
Protocol: For detection of tubulins, HCT-116 cells (1×10^5 cells/well) were seeded on to 18 mm square cover slips in six well plates in complete medium. […] After the treatment period, cells were fixed in 4% paraformaldehyde for 10 min at room temperature and permeabilized using 0.5% Triton-X in PBS for 5 min. The cells were blocked with 10% goat serum for 20 min at room temperature. Microtubules were detected with a monoclonal α-tubulin antibody (Sigma, Catalogue number: T9026) diluted 1:100 in 0.1% Triton X-100 in PBS for 1 h at room temperature and Alexa Fluor 488 conjugated secondary antibody (Invitrogen) diluted 1:500 in PBS for 1 h at room temperature. Cells were then washed three times in PBS and stained with 4′,6-diamidino-2-phenylindole (DAPI 1 μg/ml in PBS). The cover slips were mounted over glass slides and cells were imaged by a laser scanning confocal microscope (Olympus Fluoview FV1000). The promising candidates identified through P-gp screening and antiproliferative screening were further studied for tubulin polymerization inhibition activity.

P-gp = P-gp induction assay, rhodamine123 (Rh123) cell exclusion method in LS-180 cells
Protocol: All synthesized compounds were screened for their ability to induce P-gp by using rhodamine123 (Rh123) cell exclusion method. In this method, the P-gp function was evaluated in terms of rhodamine 123 (Rh123) accumulation and efflux. Briefly, the protocol used is as follows: Colorectal LS-180 cells (ECACC type, purchased from Sigma, Cat. no. 87021202, cell passage no. 52) were seeded at a density of 2×10^4 per well of 96 well plate and were allowed to grow for next 24 h. Cells were further incubated with the test compounds, and were diluted to a final concentration of 100 nM and rifampicin (standard) to a final concentration of 10 μM in complete media for 48 h. The final concentration of DMSO was kept at 0.1%. Drugs were removed and cells were incubated with HANKS buffer for 40 minutes before further incubation with HANKS buffer (containing 10 μM of Rh123 as a P-gp substrate) for 90 minutes. At the end of Rh123 treatment cells were washed four times with cold PBS followed by cell lysis for 1 h by using 200 μl of lysis buffer (0.1% Triton X-100 and 0.2 N NaOH). A total of 100 μl of lysate was used for reading fluorescence of Rh123 at 485 nm/529 nm. Samples were normalized by dividing fluorescence of each sample with total protein present in the lysate. For EC50 determination, different concentrations of compound were used to treat LS180 cells for 48 h. EC50 was determined by plotting fluorescence of Rh123 against concentration of compound.

Ehrlich solid tumor = test: In vivo activity in Ehrlich solid tumor model; design: species or system swiss mice; conditions: i/p day 1-9, 1 0.75 mg/kg, 1g 1 mg/kg, 5-fluorouracil 22 mg/kg; for Mortality: dead/group size
Protocol: Ehrlich ascites carcinoma (EAC) cells were collected from the peritoneal cavity of the swiss mice (animal house of IIIM registered eith CPCSEA; registration no. 67/99/CPCSEA) weighing 18-23 gm, harbouring 8-10 days old ascitic tumor. 1×10^7 EAC cells were injected intramuscularly in the right thigh of 38 swiss male mice selected for the experiment on day 0. The next day, animals were randomized and divided into five groups. Four treatment groups contained 7 animals each and one control group contained 10 animals. Treatment was given as follows:
Group I: 1 (0.75 mg/kg, i/p) from day 1-9.
Group II: 1g (1 mg/kg, i/p) from day 1-9.
The third treatment group was treated with 5-fluorouracil (22 mg/kg, i/p) from day 1-9 and it served as positive control. The control group was similarly administered normal saline (0.2 ml, i/p) from day 1-9. On day 9 & 13, tumor bearing thigh of each animal was shaved and longest and shortest diameters of the tumor were measured with the help of vernier caliper. Tumor weight of each animal was calculated using the following formula.
The percent tumor growth inhibition was calculated on day 13 by comparing the average values of treated groups with that of control group. Tumor growth in saline treated control animals was taken to be 100%.

[4] = male, mouse, plasma, IV 1 mg/Kg
[5] = male, mouse, plasma, PO 10 mg/Kg

## COc1cc2c(c(OC)c1OC)-c1ccc(Nc3ccc(Cl)c(C(F)(F)F)c3)c(=O)cc1[C@@H](NC(C)=O)CC2 [Compound 1g, N-[(7S)-1,2,3-Trimethoxy-9-oxo-10-[3-(trifluoromethyl)-4-chloro-phenylamino]-5,6,7,9-tetrahydrobenzo[a]heptalen-7-yl]acetamide]
[1]; aqueous buffer, phosphate buffer saline, read-out: Solubility, PBS
  solubility: > 1500 µg/mL
[1]; fassgf or other biorelevant, simulated intestinal fluid, read-out: Solubility, SIF
  solubility: > 1500 µg/mL
[1]; simulated gastric fluid, read-out: Solubility, SGF
  solubility: > 1500 µg/mL
[1]; water, read-out: Solubility, Water
  solubility: > 1500 µg/mL
[2]; IV 1 mg/Kg
  Tlast: 8.00 h
[2]; IV 1 mg/Kg, 1 mg/kg
  CL: 6.19 mL/min/kg
[2]
  bioavailability: 64.4 % F
[2]; male, BALB/c, mouse, plasma, iv, 1 mg/kg, IV 1 mg/Kg
  clearance: ~6 mL/min/kg
[2]; male, BALB/c, mouse, plasma, iv, 1 mg/kg, IV 1 mg/Kg, read-out: Vd
  Vd: 1.49 L/kg
[2]; male, BALB/c, mouse, plasma, iv, 1 mg/kg, IV 1 mg/Kg, read-out: Vdss
  Vd: 1.47 L/kg
[2]; [4]
  AUC(0-inf): 2690 ng·h/mL
  AUC(0-t): 2340 ng·h/mL
  Cmax: 698 ng/mL
[2]; male, mouse, plasma, IV 1 mg/Kg, extrapolated, calculated manually using initial 3 time points
  C0: 819 ng/mL
[2]; male, mouse, plasma, IV 1 mg/Kg, read-out: t1/2, β (converted)
  half-life: 2.78 h
[2]; male, mouse, plasma, read-out: absolute oral bioavailability
  bioavailability: 64%
[2]; [5]
  AUC(0-inf): 17300 ng·h/mL
  AUC(0-t): 16900 ng·h/mL
  Cmax: 3030 ng/mL
  Tmax: 2 h
[2]; male, mouse, plasma, PO 10 mg/Kg, read-out: t1/2,β (converted)
  half-life: 5.43 h
[3]
  disruption of microtubule assembly: remarkable disruption and loss of microtubules
P-gp; LS180 cells, Rh123 accumulation, in words
  P-gp induction activity: complete loss of P-gp induction activity
P-gp; compound 100 nM, 48 h, control = 100%, decrease indicates P-gp induction
  % intracellular accumulation of Rh123 in LS180 cells: 90%
P-gp; read-out: EC50, induction of P-gp, P-gp overexpressing LS-180 cells, 48 h
  EC50: 69 nM
Ehrlich solid tumor; day 1
  Avg. body weights (g) of animal on days 1: 22.28 g
Ehrlich solid tumor; day 5
  Avg. body weights (g) of animal on days 5: 22.0 g
Ehrlich solid tumor; day 9
  Avg. body weights (g) of animal on days 9: 21.28 g
Ehrlich solid tumor; day 13
  Day 13 Avg. body weights: 21.66 g
  Day 13 Avg. tumor weights: 778.0 mg
Ehrlich solid tumor; day 13 vs saline control
  % Tumor Growth Inhibition: 47.35%
Ehrlich solid tumor
  Mortality: no mortality and 0/7
Ehrlich solid tumor; listed as 4o
  Mortality: no mortality
